Assay results from PMC12115217, “3,3′-((3-Hydroxyphenyl)azanediyl)dipropionic Acid Derivatives as a Promising Scaffold Against Drug-Resistant Pathogens and Chemotherapy-Resistant Cancer” (Pathogens, 2025).
Converted amounts (≈) assume the structure as drawn. Counter-ions that a name gives are not always drawn. Like-named read-outs stand apart in the source and are kept apart here.

What was measured:
E. faecalis AR-0671 = experiment: Broth microdilution MIC, E. faecalis AR-0671; assay type: cell-based, Enterococcus faecalis; conditions: for MIC: Enterococcus faecalis
Source text: (§1) The multidrug-resistant S. aureus strain TCH 1516 [USA 300-HOU-MR] was obtained from the American Type Culture Collection (ATCC, Manassas, VA, USA) (Table 1). E. faecalis AR-0671, multidrug-resistant E. coli AR-0001, K. pneumoniae AR-0003, P. aeruginosa AR-1114, and A. baumannii AR-0273 strains were acquired from the Centers for Disease Control and Prevention (CDC) AR isolate bank (Table 1). Prior to the initiation of this study, all microbial strains were stored in commercial cryopreservation systems at a temperature of −80 °C. The strains were cultivated on Columbia sheep blood agar (Becton Dickinson, Franklin Lakes, NJ, USA) or potato dextrose agar (PDA) for Candida (Becton Dickinson, Franklin Lakes, NJ, USA).
(§2) The antimicrobial activity of 3-((3-hydroxyphenyl)amino)propanoic acid derivatives was assessed by using the broth microdilution method, following the guidelines outlined by the Clinical Laboratory Standards Institute (CLSI), with modifications. In brief, the compounds were dissolved in dimethyl sulfoxide (DMSO) to attain a final concentration of 25–30 mg/mL. Vancomycin hydrochloride (MedChem express, Cat. No. HY-17362), cefazolin (MedChem express, Cat. No. HY-B1892), and meropenem (MedChem express, Cat. No. HY-13678) were used as control antimicrobial drugs and were dissolved in DMSO as described before. Dilution series were prepared in deep 96-well microplates to achieve a two-fold concentration range of 0.25, 0.5, 1, 2, 4, 8, 16, 32, and 64 µg/mL, utilizing cation-adjusted Mueller–Hinton broth (CAMHB) as the growth medium. The microplates containing the dilution series were then inoculated with fresh cultures of each tested organism to reach a final concentration of 5 × 10^4 CFU (colony-forming units) of the test organism in media containing 1% DMSO and 1× drug concentration, with a volume of 200 µL per well. Wells that were inoculated with medium containing 1% DMSO served as positive controls. Subsequently, the microplates were incubated at 35 ± 1 °C for 18 ± 2 h. Following the incubation period, the plates were examined by using a manual microplate viewer (Sensititre Manual Viewbox, ThermoFisher Scientific, Waltham, MA, USA). […] All experiments were conducted in duplicate with three technical replicates for each condition.

A. baumannii AR-0273 = experiment: Broth microdilution MIC, A. baumannii AR-0273; assay type: cell-based, Acinetobacter baumannii; conditions: Acinetobacter baumannii, AR0273; OXA-23; CAMHB, 18 ± 2 h; read-out: minimal inhibitory concentration (MIC) A. baumannii AR-0273
Source text: as §1, §2

S. aureus TCH 1516 = experiment: Broth microdilution MIC, S. aureus TCH 1516; assay type: cell-based; conditions: Staphylococcus aureus
E. coli AR-0001 = experiment: Broth microdilution MIC, E. coli AR-0001; assay type: cell-based; conditions: Escherichia coli, AR0001; multidrug-resistant, KPC-3; CAMHB, 18 ± 2 h; read-out: minimal inhibitory concentration (MIC) E. coli AR-0001
K. pneumoniae AR-0003 = experiment: Broth microdilution MIC, K. pneumoniae AR-0003; assay type: cell-based; conditions: Klebsiella pneumoniae, AR0003; KPC-3; CAMHB, 18 ± 2 h; read-out: minimal inhibitory concentration (MIC) K. pneumoniae AR-0003
P. aeruginosa AR-1114 = experiment: Broth microdilution MIC, P. aeruginosa AR-1114; assay type: cell-based; conditions: Pseudomonas aeruginosa, AR1114; IMP-15; CAMHB, 18 ± 2 h; read-out: minimal inhibitory concentration (MIC) P. aeruginosa AR-1114
FaDu cells = experiment: MTT cell viability at fixed 100 µM, FaDu cells; assay type: cell-based; conditions: 24 h, described in words (Figure 2)
Method: Test compounds 2–25 were dissolved in hybridoma-grade dimethyl sulfoxide (Millipore, Sigma, Burlington, MA, USA) to prepare stock solutions at concentrations of 10–25 mg/mL. […] For in vitro anticancer activity screening, the compounds were thawed at room temperature, protected from light, and the aliquots were diluted in complete cell culture media to achieve a final concentration of 100 µM and used for the in vitro assays. The cytotoxicity assays were performed in triplicate.
FaDu cells were obtained from the American Type Culture Collection (Rockville, MD, USA). HEK293 cells were kindly provided by Dr. Iliev lab at the Jill Roberts Institute for Inflammatory Bowel Disease, Weill Cornel Medicine of Cornel University (New York, NY, USA). All cells were cultivated in Dulbecco’s Modified Eagle Medium/Nutrient Mixture F-12 (DMEM/F-12) (Gibco, Waltham, MA, USA), 10% fetal bovine serum (FBS) (Gibco, Waltham, MA, USA), 100 U/mL penicillin, and 100 μg/mL streptomycin (P/S) (Gibco, Waltham, MA, USA). Culturing conditions were maintained at 37 °C in a humidified atmosphere containing 5% CO2. The culture medium was refreshed every 2–3 days, and cells were passaged upon reaching 70–80% confluence.
The in vitro inhibitory effects of the compounds were assessed by using the MTT assay. Briefly, cells were plated in 96-well plates at a density of 1 × 10⁴ cells per well. After the cells were allowed to adhere overnight at 37 °C in 5% CO₂, they were treated with compounds at a concentration of 100 µM in triplicate. Following a 20 h incubation, the MTT reagent was added, and the cells were further incubated for 4 h. The resulting formazan was solubilized in anhydrous DMSO, and absorbance was measured at 570 nm by using a microplate reader. Cell viability was calculated by using the following formula: ([AE − AB]/[AC − AB]) × 100%, where AE, AC, and AB represent the absorbance values of experimental samples, untreated controls, and blank wells, respectively. Data analysis was performed by using GraphPad Prism or QuickCalcs.

[1] = AR0671, CAMHB, 18 ± 2 h, read-out: minimal inhibitory concentration (MIC) E. faecalis AR-0671
[2] = MRSA / USA300, mecA MRSA isolate, USA300 lineage, CAMHB, 18 ±, read-out: minimal inhibitory concentration (MIC) S. aureus TCH 1516

SMILES	minimal inhibitory concentration (MIC) E. faecalis AR-0671 (E. faecalis AR-0671; CAMHB)	MIC (E. faecalis AR-0671; [1])	MIC (A. baumannii AR-0273)	MIC (S. aureus TCH 1516; [2])	MIC (E. coli AR-0001)	MIC (K. pneumoniae AR-0003)	MIC (P. aeruginosa AR-1114)	MIC (E. faecalis AR-0671; AR0671, read-out: minimal inhibitory concentration (MIC) E. faecalis AR-0671)	MIC (S. aureus TCH 1516; MRSA / USA300, read-out: minimal inhibitory concentration (MIC) S. aureus TCH 1516)	post-treatment viability (MTT assay) (FaDu cells)
O=C(CCN(CCC(=O)NN=Cc1ccc(Cl)cc1)c1cccc(O)c1)NN=Cc1ccc(Cl)cc1 [Compound 11, 3,3′-((3-Hydroxyphenyl)azanediyl)bis(N′-(4-chlorobenzylidene)propanehydrazide)]	>64 µg/mL	> 64 µg/mL	> 64 µg/mL	64 µg/mL (≈ 122 µM)	> 64 µg/mL	> 64 µg/mL	> 64 µg/mL	–	–	–
O=C(CCN(CCC(=O)NN=Cc1ccc(F)cc1F)c1cccc(O)c1)NN=Cc1ccc(F)cc1F [Compound 9, 3,3′-((3-Hydroxyphenyl)azanediyl)bis(N′-(2,4-difluorobenzylidene)propanehydrazide)]	–	> 64 µg/mL	> 64 µg/mL	> 64 µg/mL	> 64 µg/mL	> 64 µg/mL	> 64 µg/mL	–	–	–
CN[C@H](CC(C)C)C(=O)N[C@H]1C(=O)N[C@@H](CC(N)=O)C(=O)N[C@H]2C(=O)N[C@H]3C(=O)N[C@H](C(=O)N[C@H](C(=O)O)c4cc(O)cc(O)c4-c4cc3ccc4O)[C@H](O)c3ccc(c(Cl)c3)Oc3cc2cc(c3O[C@@H]2O[C@H](CO)[C@@H](O)[C@H](O)[C@H]2O[C@H]2C[C@](C)(N)[C@H](O)[C@H](C)O2)Oc2ccc(cc2Cl)[C@H]1O [Vancomycin, Vancomycin hydrochloride, reference compound]	–	–	–	–	–	–	–	4 µg/mL	2 µg/mL	–
CCC(C)=NNC(=O)CCN(CCC(=O)NN=C(C)CC)c1cccc(O)c1 [Compound 20, 3,3′-((3-Hydroxyphenyl)azanediyl)bis(N′-(butan-2-ylidene)propanehydrazide)]	–	32 µg/mL (≈ 82.2 µM)	> 64 µg/mL	16 µg/mL (≈ 41.1 µM)	> 64 µg/mL	> 64 µg/mL	> 64 µg/mL	–	–	–
C/C(=N\NC(=O)CCN(CCC(=O)N/N=C(\C)c1ccc(S(N)(=O)=O)cc1)c1cccc(O)c1)c1ccc(S(N)(=O)=O)cc1 [Compound 22, 4,4′-(((3,3′-((3-Hydroxyphenyl)azanediyl)bis(propanoyl))bis(hydrazin-2-yl-1-ylidene))bis(ethan-1-yl-1-ylidene))dibenzenesulfonamide]	–	32 µg/mL (≈ 49.7 µM)	> 64 µg/mL	8 µg/mL (≈ 12.4 µM)	16 µg/mL (≈ 24.9 µM)	> 64 µg/mL	> 64 µg/mL	–	–	–
Cc1ccc(C)n1NC(=O)CCN(CCC(=O)Nn1c(C)ccc1C)c1cccc(O)c1 [Compound 23, 3,3′-((3-Hydroxyphenyl)azanediyl)bis(N-(2,5-dimethyl-1H-pyrrol-1-yl)propanamide)]	–	> 64 µg/mL	> 64 µg/mL	64 µg/mL (≈ 146 µM)	> 64 µg/mL	> 64 µg/mL	> 64 µg/mL	–	–	reduced viability
COC(=O)CCN(CCC(=O)OC)c1cccc(O)c1 [Compound 3, Dimethyl 3,3′-((3-hydroxyphenyl)azanediyl)dipropionate]	–	> 64 µg/mL	> 64 µg/mL	> 64 µg/mL	32 µg/mL (≈ 114 µM)	> 64 µg/mL	> 64 µg/mL	–	–	minimal cytotoxicity
O=C(CCN(CCC(=O)N/N=C/c1ccco1)c1cccc(O)c1)N/N=C/c1ccco1 [Compound 15]	–	> 64 µg/mL	64 µg/mL (≈ 146 µM)	> 64 µg/mL	> 64 µg/mL	> 64 µg/mL	64 µg/mL (≈ 146 µM)	–	–	enhanced cytotoxic effects
O=C(CCN(CCC(=O)NN=Cc1cccc2ccccc12)c1cccc(O)c1)NN=Cc1cccc2ccccc12 [Compound 14, 3,3′-((3-Hydroxyphenyl)azanediyl)bis(N′-(naphthalen-1-ylmethylene)propanehydrazide)]	–	8 µg/mL (≈ 14.3 µM)	> 64 µg/mL	2 µg/mL (≈ 3.59 µM)	64 µg/mL (≈ 115 µM)	> 64 µg/mL	> 64 µg/mL	–	–	–
CN(C)c1ccc(/C=N/NC(=O)CCN(CCC(=O)N/N=C/c2ccc(N(C)C)cc2)c2cccc(O)c2)cc1 [Compound 12]	–	> 64 µg/mL	64 µg/mL (≈ 118 µM)	64 µg/mL (≈ 118 µM)	> 64 µg/mL	64 µg/mL (≈ 118 µM)	64 µg/mL (≈ 118 µM)	–	–	enhanced cytotoxic effects
CC(=NNC(=O)CCN(CCC(=O)NN=C(C)c1ccccc1)c1cccc(O)c1)c1ccccc1 [Compound 21, 3-((3-Hydroxyphenyl)(3-oxo-3-(2-(1-phenylethylidene)hydrazineyl)propyl)amino)-N′-(1-phenylethylidene)propanehydrazide]	–	32 µg/mL (≈ 65.9 µM)	> 64 µg/mL	32 µg/mL (≈ 65.9 µM)	> 64 µg/mL	> 64 µg/mL	> 64 µg/mL	–	–	–
Cc1nnc(SCC2=C(C(=O)O)N3C(=O)[C@@H](NC(=O)Cn4cnnn4)[C@H]3SC2)s1 [Cefazolin, cefazolin, reference compound]	–	8 µg/mL (≈ 17.6 µM)	> 64 µg/mL	32 µg/mL (≈ 70.4 µM)	> 64 µg/mL	> 64 µg/mL	> 64 µg/mL	–	–	–
Cc1cc(C)n(C(=O)CCN(CCC(=O)n2nc(C)cc2C)c2cccc(O)c2)n1 [Compound 24, 3,3′-((3-Hydroxyphenyl)azanediyl)bis(1-(3,5-dimethyl-1H-pyrazol-1-yl)propan-1-one)]	–	> 64 µg/mL	> 64 µg/mL	> 64 µg/mL	> 64 µg/mL	> 64 µg/mL	> 64 µg/mL	–	–	reduced viability
C[C@@H](O)[C@H]1C(=O)N2C(C(=O)O)=C(S[C@@H]3CN[C@H](C(=O)N(C)C)C3)[C@H](C)[C@H]12 [Meropenem, meropenem, reference compound]	–	2 µg/mL (≈ 5.22 µM)	> 64 µg/mL	2 µg/mL (≈ 5.22 µM)	8 µg/mL (≈ 20.9 µM)	64 µg/mL (≈ 167 µM)	32 µg/mL (≈ 83.4 µM)	–	–	–
